Data published in patent US9006487B2, “Amine-containing lipids and uses thereof” (Massachusetts Institute of Technology, priority 2005, dated 2015).
Values joined by “and” are separate entries in the source; they are usually repeats but may differ in a detail not shown here. Identical values can stand only once.

How the values were obtained:
Format in all cases: cell-based
cos-7 cells = experiment: DNA transfection: luciferase expression relative to Lipofectamine 2000; settings: for luciferase expression (second part of table, values relative to LIPO2000): 300 ng of DNA per well; for Luciferase expression as a percentage of that achieved using Lipofectamine 2000: 300 ng Luciferase DNA per well; for Luciferase expression as a percentage of that achieved using Lipofectamine 2000 / % of the luciferase activity obtained from the use of Lipofectamine 2000: luciferase assay after 48 hours; for % of the luciferase activity obtained from the use of Lipofectamine 2000: 300 ng DNA per well
Outline: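 cos-7 cells were transfected with 300 ng/well luciferase DNA complexed with lipid at ratios from 2.5 to 25 w/w. Bright-Glo luminescence was read after 48 hours and converted to ng luciferase by standard curve. Data are percent of the Lipofectamine 2000 control (2.5 w/w).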

[1] = test system: renilla and firefly luciferases; experiment: siRNA delivery: reporter-protein (renilla luciferase) knockdown relative to Lipofectamine 2000, firefly luciferase as viability control; settings: 50 ng of siRNA per well
Protocol: Reporter-protein knockdown achieved by the top transfecting lipids relative to Lipofectamine™ 2000 (where negative values indicate improved knockdown). The assay accounts for toxicity, monitoring expression of both renilla and firefly luciferases, where the latter serves as viability control. For each lipid, 50 ng of siRNA was added per well at specific lipid/RNA w/w ratios (from top to bottom: 2.5, 5, 10, 15).

[2] = DNA delivery: raw luciferase expression (relative light units) of best-transfecting lipids; settings: 300 ng of DNA per well
Protocol: Raw values for luciferase expression (relative lights units) of best-transfecting lipids at lipid/DNA (w/w) ratios listed. 300 ng of DNA was added per well.

[3] = 1st column, no head printed (2.5 w/w by the raw values)
[4] = 2nd column, no head printed (5 w/w by the raw values)
[5] = 3rd column, no head printed (10 w/w by the raw values)
[6] = 4th column, no head printed (15 w/w by the raw values)

Row | Structure (SMILES) | luciferase expression (second part of table, values relative to LIPO2000) (cos-7 cells; lipid/DNA 2.5 w/w) | luciferase expression (second part of table, values relative to LIPO2000) (cos-7 cells; lipid/DNA 5 w/w) | luciferase expression (second part of table, values relative to LIPO2000) (cos-7 cells; lipid/DNA 10 w/w) | luciferase expression (second part of table, values relative to LIPO2000) (cos-7 cells; lipid/DNA 15 w/w) | luciferase expression, second set of columns (replicate set of data) (cos-7 cells; [3]) | luciferase expression, second set of columns (replicate set of data) (cos-7 cells; [4]) | luciferase expression, second set of columns (replicate set of data) (cos-7 cells; [5]) | luciferase expression, second set of columns (replicate set of data) (cos-7 cells; [6]) | Reporter-protein knockdown relative to Lipofectamine 2000 (negative values indicate improved knockdown) ([1]; lipid/RNA 2.5 w/w) | Reporter-protein knockdown relative to Lipofectamine 2000 (negative values indicate improved knockdown) ([1]; lipid/RNA 5 w/w) | Reporter-protein knockdown relative to Lipofectamine 2000 (negative values indicate improved knockdown) ([1]; lipid/RNA 10 w/w) | Reporter-protein knockdown relative to Lipofectamine 2000 (negative values indicate improved knockdown) ([1]; lipid/RNA 15 w/w) | luciferase expression (second part of table, values relative to LIPO2000) (cos-7 cells; lipid/DNA 20 w/w) | luciferase expression (second part of table, values relative to LIPO2000) (cos-7 cells; lipid/DNA 25 w/w) | Raw values for luciferase expression ([2]; lipid/DNA 2.5 w/w) | Luciferase expression as a percentage of that achieved using Lipofectamine 2000 (cos-7 cells; lipid/DNA 2.5 w/w) [%] | Luciferase expression as a percentage of that achieved using Lipofectamine 2000 (cos-7 cells; lipid/DNA 5 w/w) [%] | Luciferase expression as a percentage of that achieved using Lipofectamine 2000 (cos-7 cells; lipid/DNA 10 w/w) [%] | Luciferase expression as a percentage of that achieved using Lipofectamine 2000 (cos-7 cells; lipid/DNA 15 w/w) [%] | Luciferase expression as a percentage of that achieved using Lipofectamine 2000 (cos-7 cells; lipid/DNA 20 w/w) [%] | also measured
1 | CCCCCCCCCCCCCCNC(=O)CCN(C)CCCN(CCC(=O)NCCCCCCCCCCCCCC)CCC(=O)NCCCCCCCCCCCCCC [NF96] | 221.5 | 44.3 | 0.2 | 0.1 | 79.4 | 40.8 | 29.2 | 2.4 | −6.262 | −2.035 | 63.2 | 90.8142 | – | – | – | – | – | – | – | – | Raw values for luciferase expression ([2]; lipid/DNA 10 w/w): 2048655 relative lights units; Raw values for luciferase expression ([2]; lipid/DNA 15 w/w): 167043 relative lights units
2 | CCCCCCCCCCCCNC(=O)CCN(CCC(=O)NCCCCCCCCCCCC)CCN(CCC(=O)NCCCCCCCCCCCC)CCN(CCC(=O)NCCCCCCCCCCCC)CCN(CCC(=O)NCCCCCCCCCCCC)CCC(=O)NCCCCCCCCCCCC [ND98] | 22.2 | 5.3 | 0.5 | 0.4 | 78.4 | 65.8 | 26.0 | 9.2 | −4.005 | −4.482 | −4.634 | −13.9514 | 0.4 | 0.3 | 5649897 relative lights units and 6947385 relative lights units | – | – | – | – | – | Raw values for luciferase expression ([2]; lipid/DNA 10 w/w): 1824773 relative lights units; Raw values for luciferase expression ([2]; lipid/DNA 15 w/w): 643862 relative lights units
3 | CCCCCCCCCCCCNC(=O)CCN(CCC(=O)NCCCCCCCCCCCC)CCN(CCC(=O)NCCCCCCCCCCCC)CCC(=O)NCCCCCCCCCCCC [ND99] | 16.8 | 36.5 | 78.6 | 91.7 | 132.7 | 97.5 | 6.8 | 2.2 | −10.1961 | −9.86 | −18.2728 | −20.0273 | – | – | 10252260 relative lights units and 11757295 relative lights units | – | – | – | – | – | Raw values for luciferase expression ([2]; lipid/DNA 5 w/w): 9886021 relative lights units and 7656193 relative lights units
4 | CCCCCCCCCCCCCCCNC(=O)CCN(CC)CCCN(CC)CCC(=O)NCCCCCCCCCCCCCCC [NG64] | – | – | – | – | – | – | – | – | −11.7697 | −34.6712 | 3.073 | 1.439 | – | – | 2585784 relative lights units | – | – | – | – | – | Raw values for luciferase expression ([2]; lipid/DNA 5 w/w): 1972838 relative lights units
5 | CCCCCCCCCCCCOC(=O)CCN(CCOCCO)CCC(=O)OCCCCCCCCCCCC [LD31] | 44.2 | 38.7 | 18.8 | 11.3 | – | – | – | – | 15.3558 | −7.897 | −15.5821 | −16.8831 | 42.8 | 174.1 | – | 44.2 | 38.7 | 18.8 | 11.3 | 42.8 | Luciferase expression as a percentage of that achieved using Lipofectamine 2000 (cos-7 cells; lipid/DNA 25 w/w): 174.1%
6 | CCCCCCCCCCCCCCCOC(=O)CCN(CCO)CCN(CCC(=O)OCCCCCCCCCCCCCCC)CCC(=O)OCCCCCCCCCCCCCCC [LG109] | – | – | – | – | – | – | – | – | 55.7409 | 43.9 | −5.231 | −11.1255 | – | – | – | 16.3 | 36.0 | 23.4 | 37.9 | 25.7 | Luciferase expression as a percentage of that achieved using Lipofectamine 2000 (cos-7 cells; lipid/DNA 25 w/w): 34.5%
7 | CCCCCCCCCCCCCCOC(=O)CCN(CCOCCO)CCC(=O)OCCCCCCCCCCCCCC [LF31] | 64.1 | 78.7 | 13.4 | 69.5 | – | – | – | – | 50.09 | 11.94 | −0.8252 | −10.5366 | 97.3 | 266.8 | – | 64.1 | 78.7 | 13.4 | 69.5 | 97.3 | Luciferase expression as a percentage of that achieved using Lipofectamine 2000 (cos-7 cells; lipid/DNA 25 w/w): 266.8%
8 | CCCCCCCCCCCCCOC(=O)CCN(CCCN(CCO)CCO)CCC(=O)OCCCCCCCCCCCCC [LE87] | – | – | – | – | – | – | – | – | 5.504 | −6.923 | −8.533 | −15.2929 | – | – | – | – | – | – | – | – | % of the luciferase activity obtained from the use of Lipofectamine 2000 (cos-7 cells; 2.5 w/w lipid to DNA): 10.5%; % of the luciferase activity obtained from the use of Lipofectamine 2000 (cos-7 cells; 5 w/w lipid to DNA): 9.0%; % of the luciferase activity obtained from the use of Lipofectamine 2000 (cos-7 cells; 10 w/w lipid to DNA): 38.4%; % of the luciferase activity obtained from the use of Lipofectamine 2000 (cos-7 cells; 15 w/w lipid to DNA): 4.3%; % of the luciferase activity obtained from the use of Lipofectamine 2000 (cos-7 cells; 20 w/w lipid to DNA): 0.0%; % of the luciferase activity obtained from the use of Lipofectamine 2000 (cos-7 cells; 25 w/w lipid to DNA): 0.0%
